Results as given in ChEMBL document CHEMBL1153040, “HIF-1alpha peptide derivatives with modifications at the hydroxyproline residue as activators of HIF-1alpha” (Bioorg Med Chem Lett, 2009).
Calls of active or inactive are those of the source. The rule behind the calls is not given here.

target: Hypoxia-inducible factor 1-alpha (Homo sapiens, UniProt Q16665); assay: Inhibition of interaction between fluorescein-labeled proline hydroxylated human HIFalpha (556 to 575) and human VHL-human elongin B-human elongin C complex expressed in Escherichia coli by fluorescence polarization assay
Sequence (Q16665 whole entry): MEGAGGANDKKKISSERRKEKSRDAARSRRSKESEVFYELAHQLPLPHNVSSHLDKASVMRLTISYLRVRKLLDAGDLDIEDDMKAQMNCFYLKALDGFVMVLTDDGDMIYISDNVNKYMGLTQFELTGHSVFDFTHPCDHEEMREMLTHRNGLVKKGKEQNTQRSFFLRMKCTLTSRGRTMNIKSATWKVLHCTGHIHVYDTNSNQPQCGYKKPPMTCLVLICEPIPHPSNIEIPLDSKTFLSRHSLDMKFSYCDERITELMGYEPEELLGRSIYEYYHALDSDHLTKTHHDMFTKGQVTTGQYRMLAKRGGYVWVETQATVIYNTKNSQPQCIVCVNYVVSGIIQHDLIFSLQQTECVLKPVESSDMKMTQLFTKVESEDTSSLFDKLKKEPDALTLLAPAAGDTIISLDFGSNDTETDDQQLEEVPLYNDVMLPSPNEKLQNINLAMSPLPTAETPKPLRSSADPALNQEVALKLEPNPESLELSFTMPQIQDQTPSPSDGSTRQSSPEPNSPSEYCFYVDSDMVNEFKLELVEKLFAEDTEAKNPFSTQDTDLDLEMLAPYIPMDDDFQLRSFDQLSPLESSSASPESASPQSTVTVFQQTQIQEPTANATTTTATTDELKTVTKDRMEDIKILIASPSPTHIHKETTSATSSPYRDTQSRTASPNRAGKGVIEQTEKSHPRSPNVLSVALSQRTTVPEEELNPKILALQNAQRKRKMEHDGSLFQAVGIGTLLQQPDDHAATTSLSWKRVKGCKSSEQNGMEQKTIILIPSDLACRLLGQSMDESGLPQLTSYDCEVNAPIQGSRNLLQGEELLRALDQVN

Ki [µM]	Structure (SMILES)
50	CC[C@@H](C)[C@H](NC(=O)[C@H](C)NC(=O)[C@H](CC(C)C)NC(=O)[C@H](C)NC(=O)[C@H](CCC(=O)O)NC(=O)[C@H](CC(C)C)NC(=O)[C@H](CC(=O)O)NC(=O)[C@H](CC(C)C)NC(=O)[C@@H](N)CC(=O)O)C(=O)N[C@@H](Cc1ccc(O)cc1)C(=O)N[C@H](C(=O)N1CCC[C@H]1C(=O)N[C@@H](C)C(=O)N[C@@H](CC(=O)O)C(=O)N[C@@H](CC(=O)O)C(=O)N[C@@H](CC(=O)O)C(=O)N[C@@H](Cc1ccccc1)C(=O)N[C@@H](CCC(N)=O)C(=O)N[C@@H](CC(C)C)C(=O)N[C@@H](CCCN=C(N)N)C(N)=O)[C@H](C)CC
15	CC[C@@H](C)[C@H](NC(=O)[C@H](Cc1ccc(O)cc1)NC(=O)[C@H](CC(=O)O)NC(=O)[C@H](C)NC(=O)[C@H](CC(C)C)NC(=O)[C@H](C)NC(=O)[C@H](CCC(=O)O)NC(=O)[C@H](CC(C)C)NC(=O)[C@H](CC(=O)O)NC(=O)[C@H](CC(C)C)NC(=O)[C@@H](N)CC(=O)O)C(=O)N1CCC[C@H]1C(=O)N[C@@H](C)C(=O)N[C@@H](CC(=O)O)C(=O)N[C@@H](CC(=O)O)C(=O)N[C@@H](CC(=O)O)C(=O)N[C@@H](Cc1ccccc1)C(=O)N[C@@H](CCC(N)=O)C(=O)N[C@@H](CC(C)C)C(=O)N[C@@H](CCCNC(=N)N)C(N)=O
3.7	CC[C@@H](C)[C@H](NC(=O)[C@H](Cc1ccc(O)cc1)NC(=O)[C@@H]1C[C@@H](O)CN1C(=O)[C@H](C)NC(=O)[C@H](CC(C)C)NC(=O)[C@H](C)NC(=O)[C@H](CCC(=O)O)NC(=O)[C@H](CC(C)C)NC(=O)[C@H](CC(=O)O)NC(=O)[C@H](CC(C)C)NC(=O)[C@@H](N)CC(=O)O)C(=O)N1CCC[C@H]1C(=O)N[C@@H](C)C(=O)N[C@@H](CC(=O)O)C(=O)N[C@@H](CC(=O)O)C(=O)N[C@@H](CC(=O)O)C(=O)N[C@@H](Cc1ccccc1)C(=O)N[C@@H](CCC(N)=O)C(=O)N[C@@H](CC(C)C)C(=O)N[C@@H](CCCN=C(N)N)C(N)=O
> 500	CC[C@@H](C)[C@H](NC(=O)[C@H](Cc1ccc(O)cc1)NC(=O)[C@@H]1CCCN1C(=O)[C@H](C)NC(=O)[C@H](CC(C)C)NC(=O)[C@H](C)NC(=O)[C@H](CCC(=O)O)NC(=O)[C@H](CC(C)C)NC(=O)[C@H](CC(=O)O)NC(=O)[C@H](CC(C)C)NC(=O)[C@@H](N)CC(=O)O)C(=O)N1CCC[C@H]1C(=O)N[C@@H](C)C(=O)N[C@@H](CC(=O)O)C(=O)N[C@@H](CC(=O)O)C(=O)N[C@@H](CC(=O)O)C(=O)N[C@@H](Cc1ccccc1)C(=O)N[C@@H](CCC(N)=O)C(=O)N[C@@H](CC(C)C)C(=O)N[C@@H](CCCNC(=N)N)C(N)=O
16	CC[C@@H](C)[C@H](NC(=O)[C@H](Cc1ccc(O)cc1)NC(=O)[C@@H](NC(=O)[C@H](C)NC(=O)[C@H](CC(C)C)NC(=O)[C@H](C)NC(=O)[C@H](CCC(=O)O)NC(=O)[C@H](CC(C)C)NC(=O)[C@H](CC(=O)O)NC(=O)[C@H](CC(C)C)NC(=O)[C@@H](N)CC(=O)O)C(C)C)C(=O)N1CCC[C@H]1C(=O)N[C@@H](C)C(=O)N[C@@H](CC(=O)O)C(=O)N[C@@H](CC(=O)O)C(=O)N[C@@H](CC(=O)O)C(=O)N[C@@H](Cc1ccccc1)C(=O)N[C@@H](CCC(N)=O)C(=O)N[C@@H](CC(C)C)C(=O)N[C@@H](CCCNC(=N)N)C(N)=O
3.4	CC[C@@H](C)[C@H](NC(=O)[C@H](Cc1ccc(O)cc1)NC(=O)[C@H](CCO)NC(=O)[C@H](C)NC(=O)[C@H](CC(C)C)NC(=O)[C@H](C)NC(=O)[C@H](CCC(=O)O)NC(=O)[C@H](CC(C)C)NC(=O)[C@H](CC(=O)O)NC(=O)[C@H](CC(C)C)NC(=O)[C@@H](N)CC(=O)O)C(=O)N1CCC[C@H]1C(=O)N[C@@H](C)C(=O)N[C@@H](CC(=O)O)C(=O)N[C@@H](CC(=O)O)C(=O)N[C@@H](CC(=O)O)C(=O)N[C@@H](Cc1ccccc1)C(=O)N[C@@H](CCC(N)=O)C(=O)N[C@@H](CC(C)C)C(=O)N[C@@H](CCCN=C(N)N)C(N)=O
5.8	CC[C@@H](C)[C@H](NC(=O)[C@H](Cc1ccc(O)cc1)NC(=O)[C@@H]1C[C@@H](F)CN1C(=O)[C@H](C)NC(=O)[C@H](CC(C)C)NC(=O)[C@H](C)NC(=O)[C@H](CCC(=O)O)NC(=O)[C@H](CC(C)C)NC(=O)[C@H](CC(=O)O)NC(=O)[C@H](CC(C)C)NC(=O)[C@@H](N)CC(=O)O)C(=O)N1CCC[C@H]1C(=O)N[C@@H](C)C(=O)N[C@@H](CC(=O)O)C(=O)N[C@@H](CC(=O)O)C(=O)N[C@@H](CC(=O)O)C(=O)N[C@@H](Cc1ccccc1)C(=O)N[C@@H](CCC(N)=O)C(=O)N[C@@H](CC(C)C)C(=O)N[C@@H](CCCNC(=N)N)C(N)=O
13	CC[C@@H](C)[C@H](NC(=O)[C@H](Cc1ccc(O)cc1)NC(=O)[C@H](CC(N)=O)NC(=O)[C@H](C)NC(=O)[C@H](CC(C)C)NC(=O)[C@H](C)NC(=O)[C@H](CCC(=O)O)NC(=O)[C@H](CC(C)C)NC(=O)[C@H](CC(=O)O)NC(=O)[C@H](CC(C)C)NC(=O)[C@@H](N)CC(=O)O)C(=O)N1CCC[C@H]1C(=O)N[C@@H](C)C(=O)N[C@@H](CC(=O)O)C(=O)N[C@@H](CC(=O)O)C(=O)N[C@@H](CC(=O)O)C(=O)N[C@@H](Cc1ccccc1)C(=O)N[C@@H](CCC(N)=O)C(=O)N[C@@H](CC(C)C)C(=O)N[C@@H](CCCNC(=N)N)C(N)=O
18	CC[C@@H](C)[C@H](NC(=O)[C@H](Cc1ccc(O)cc1)NC(=O)[C@@H](NC(=O)[C@H](C)NC(=O)[C@H](CC(C)C)NC(=O)[C@H](C)NC(=O)[C@H](CCC(=O)O)NC(=O)[C@H](CC(C)C)NC(=O)[C@H](CC(=O)O)NC(=O)[C@H](CC(C)C)NC(=O)[C@@H](N)CC(=O)O)[C@H](C)O)C(=O)N1CCC[C@H]1C(=O)N[C@@H](C)C(=O)N[C@@H](CC(=O)O)C(=O)N[C@@H](CC(=O)O)C(=O)N[C@@H](CC(=O)O)C(=O)N[C@@H](Cc1ccccc1)C(=O)N[C@@H](CCC(N)=O)C(=O)N[C@@H](CC(C)C)C(=O)N[C@@H](CCCN=C(N)N)C(N)=O
58	CC[C@@H](C)[C@H](NC(=O)[C@H](Cc1ccc(O)cc1)NC(=O)[C@H](CC(C)C)NC(=O)[C@H](C)NC(=O)[C@H](CC(C)C)NC(=O)[C@H](C)NC(=O)[C@H](CCC(=O)O)NC(=O)[C@H](CC(C)C)NC(=O)[C@H](CC(=O)O)NC(=O)[C@H](CC(C)C)NC(=O)[C@@H](N)CC(=O)O)C(=O)N1CCC[C@H]1C(=O)N[C@@H](C)C(=O)N[C@@H](CC(=O)O)C(=O)N[C@@H](CC(=O)O)C(=O)N[C@@H](CC(=O)O)C(=O)N[C@@H](Cc1ccccc1)C(=O)N[C@@H](CCC(N)=O)C(=O)N[C@@H](CC(C)C)C(=O)N[C@@H](CCCNC(=N)N)C(N)=O
109	CC[C@@H](C)[C@H](NC(=O)[C@H](Cc1ccc(O)cc1)NC(=O)[C@H](CCN)NC(=O)[C@H](C)NC(=O)[C@H](CC(C)C)NC(=O)[C@H](C)NC(=O)[C@H](CCC(=O)O)NC(=O)[C@H](CC(C)C)NC(=O)[C@H](CC(=O)O)NC(=O)[C@H](CC(C)C)NC(=O)[C@@H](N)CC(=O)O)C(=O)N1CCC[C@H]1C(=O)N[C@@H](C)C(=O)N[C@@H](CC(=O)O)C(=O)N[C@@H](CC(=O)O)C(=O)N[C@@H](CC(=O)O)C(=O)N[C@@H](Cc1ccccc1)C(=O)N[C@@H](CCC(N)=O)C(=O)N[C@@H](CC(C)C)C(=O)N[C@@H](CCCN=C(N)N)C(N)=O
77	CC[C@@H](C)[C@H](NC(=O)[C@H](Cc1ccc(O)cc1)NC(=O)[C@@H]1CCCCN1C(=O)[C@H](C)NC(=O)[C@H](CC(C)C)NC(=O)[C@H](C)NC(=O)[C@H](CCC(=O)O)NC(=O)[C@H](CC(C)C)NC(=O)[C@H](CC(=O)O)NC(=O)[C@H](CC(C)C)NC(=O)[C@@H](N)CC(=O)O)C(=O)N1CCC[C@H]1C(=O)N[C@@H](C)C(=O)N[C@@H](CC(=O)O)C(=O)N[C@@H](CC(=O)O)C(=O)N[C@@H](CC(=O)O)C(=O)N[C@@H](Cc1ccccc1)C(=O)N[C@@H](CCC(N)=O)C(=O)N[C@@H](CC(C)C)C(=O)N[C@@H](CCCN=C(N)N)C(N)=O

test system: HeLa; assay: Induction of HIFalpha stabilization in human HeLa cells assessed as HIFalpha accumulation at 1 mM incubated under normoxic condition for 6 hrs by Western blot analysis; format: functional, cell-based

Structure (SMILES)	Activity
CC[C@@H](C)[C@H](NC(=O)[C@H](Cc1ccc(O)cc1)NC(=O)[C@H](CCO)NC(=O)[C@H](C)NC(=O)[C@H](CC(C)C)NC(=O)[C@H](C)NC(=O)[C@H](CCC(=O)O)NC(=O)[C@H](CC(C)C)NC(=O)[C@H](CC(=O)O)NC(=O)[C@H](CC(C)C)NC(=O)[C@@H](N)CC(=O)O)C(=O)N1CCC[C@H]1C(=O)N[C@@H](C)C(=O)N[C@@H](CC(=O)O)C(=O)N[C@@H](CC(=O)O)C(=O)N[C@@H](CC(=O)O)C(=O)N[C@@H](Cc1ccccc1)C(=O)N[C@@H](CCC(N)=O)C(=O)N[C@@H](CC(C)C)C(=O)N[C@@H](CCCNC(=N)N)C(N)=O	Active
CC[C@@H](C)[C@H](NC(=O)[C@H](Cc1ccc(O)cc1)NC(=O)[C@@H]1C[C@@H](F)CN1C(=O)[C@H](C)NC(=O)[C@H](CC(C)C)NC(=O)[C@H](C)NC(=O)[C@H](CCC(=O)O)NC(=O)[C@H](CC(C)C)NC(=O)[C@H](CC(=O)O)NC(=O)[C@H](CC(C)C)NC(=O)[C@@H](N)CC(=O)O)C(=O)N1CCC[C@H]1C(=O)N[C@@H](C)C(=O)N[C@@H](CC(=O)O)C(=O)N[C@@H](CC(=O)O)C(=O)N[C@@H](CC(=O)O)C(=O)N[C@@H](Cc1ccccc1)C(=O)N[C@@H](CCC(N)=O)C(=O)N[C@@H](CC(C)C)C(=O)N[C@@H](CCCNC(=N)N)C(N)=O	Active
CC[C@@H](C)[C@H](NC(=O)[C@H](Cc1ccc(O)cc1)NC(=O)[C@@H]1C[C@@H](O)CN1C(=O)[C@H](C)NC(=O)[C@H](CC(C)C)NC(=O)[C@H](C)NC(=O)[C@H](CCC(=O)O)NC(=O)[C@H](CC(C)C)NC(=O)[C@H](CC(=O)O)NC(=O)[C@H](CC(C)C)NC(=O)[C@@H](N)CC(=O)O)C(=O)N1CCC[C@H]1C(=O)N[C@@H](C)C(=O)N[C@@H](CC(=O)O)C(=O)N[C@@H](CC(=O)O)C(=O)N[C@@H](CC(=O)O)C(=O)N[C@@H](Cc1ccccc1)C(=O)N[C@@H](CCC(N)=O)C(=O)N[C@@H](CC(C)C)C(=O)N[C@@H](CCCNC(=N)N)C(N)=O	Active
CC[C@@H](C)[C@H](NC(=O)[C@H](Cc1ccc(O)cc1)NC(=O)[C@H](CC(C)C)NC(=O)[C@H](C)NC(=O)[C@H](CC(C)C)NC(=O)[C@H](C)NC(=O)[C@H](CCC(=O)O)NC(=O)[C@H](CC(C)C)NC(=O)[C@H](CC(=O)O)NC(=O)[C@H](CC(C)C)NC(=O)[C@@H](N)CC(=O)O)C(=O)N1CCC[C@H]1C(=O)N[C@@H](C)C(=O)N[C@@H](CC(=O)O)C(=O)N[C@@H](CC(=O)O)C(=O)N[C@@H](CC(=O)O)C(=O)N[C@@H](Cc1ccccc1)C(=O)N[C@@H](CCC(N)=O)C(=O)N[C@@H](CC(C)C)C(=O)N[C@@H](CCCNC(=N)N)C(N)=O	inactive
